Source: patent US12590126B2, “Compounds for selective disruption of protein-protein interactions” (SyntheX, Inc., priority 2017, dated 2026)
Where a SMILES comes first, the peptide text is derived from it. [ ]: non-standard residue; d: D form. The star is where a group is joined. Dansyl = CN(C)c1cccc2c(S(=O)(=O)*)cccc12; 2Nal = N[C@@H](Cc1ccc2ccccc2c1)C(=O)O; dNle = CCCC[C@@H](N)C(=O)O; dAbu = CC[C@@H](N)C(=O)O; Sar = CNCC(=O)O

Experiments:
[1] = test system: SSP-25 cells; test: xCELLigence cell death assay in SSP-25 cells (cellular assay for RAD51 inhibition); format: cell-based; conditions: concentration gradient added at 20 hour mark, only values with R^>0.85 shown
Description: The efficacy of the peptides described herein was assessed by their ability to cause death in SSP-25 cells, which have amplification of RAD51 and are dependent on its activity.
First, 5,000 SSP25 cells were plated, and adherence and growth was measured for 20 hours using live measurements of current impedance through the plate using the xCELLigence™ instrument. At the 20 hour mark, a concentration gradient of each compound or a PBS control was added to the SSP-25 cells, which were cultured in […] RMPI media with 10% FBS. […] Only values with confidence and R^>0.85 are shown.

[2] = test system: fresh human RBCs; format: cell-based; conditions: red cells of human, 1 h, 250
Description: To assess the nonspecific lytic properties of each compounds disclosed herein, each mentioned compound was tested for hemolytic properties against fresh human RBCs. Briefly, donor blood was drawn into a K2EDTA anticoagulant tube from multiple O+ donors. The blood was washed 3 times in PBS. RBCs were diluted to 2% in PBS and compounds were added at various concentrations. Samples were incubated at 37 C for 1 hr, then centrifuged at 2200 rpm for 5 min. Supernatants were measured for absorbance at 450 nm or 405 nm. The percentage hemolysis was calculated as lysis relative to 1% Triton X-100 incubation.

Molecule | IC50 [1] [µM] | % Hemolysis (250 uM) [2] [%]
CCCC[C@@H](NC(=O)[C@@H](CC(C)C)NC(C)=O)C(=O)N[C@H](CCCNC(=N)N)C(=O)N[C@H](CC)C(=O)N[C@@H](C(=O)N[C@H](CCCNC(=N)N)C(=O)N[C@H](CC(C)C)C(=O)N[C@H](CCCNC(=N)N)C(=O)N[C@@H](C(=O)NCC(=O)N[C@H](CC(C)C)C(=O)N[C@H](CCCNC(=N)N)C(=O)N[C@H](CCCCN)C(=O)N[C@H](CCCNC(=N)N)C(=O)N[C@H](CCCNC(=N)N)C(=O)N[C@H](CCCNC(=N)N)C(=O)N[C@H](CCCNC(=N)N)C(=O)N[C@H](CCCNC(=N)N)C(=O)NCC(=O)N[C@@H](Cc1ccc2ccccc2c1)C(N)=O)C(C)C)C(C)C [Compound 15, Ac-l{d-norLeucine}r(abu)vrlrvGlrkrrrrrGΦ-NH2] (Ac-[dL][dNle][dR][dAbu][dV][dR][dL][dR][dV]G[dL][dR][dK][dR][dR][dR][dR][dR]G[2Nal]-NH2) | 7.2 | 49
CCCC[C@@H](NC(=O)[C@@H](CC(C)C)NC(=O)CN(C)S(=O)(=O)c1cccc2c(N(C)C)cccc12)C(=O)N[C@H](CCCNC(=N)N)C(=O)N[C@H](CO)C(=O)N[C@@H](C(=O)N[C@H](CCCNC(=N)N)C(=O)N[C@H](CC(C)C)C(=O)N[C@H](CCCNC(=N)N)C(=O)N[C@@H](C(=O)NCC(=O)N[C@H](CC(C)C)C(=O)N[C@H](CCCNC(=N)N)C(=O)N[C@H](CCCCN)C(=O)N[C@H](CCCNC(=N)N)C(=O)N[C@H](CCCNC(=N)N)C(=O)N[C@H](CCCNC(=N)N)C(=O)N[C@H](CCCNC(=N)N)C(=O)N[C@H](CCCNC(=N)N)C(N)=O)C(C)C)C(C)C [Compound 19, DANSYL-Sarcosine-l{d-norLeucine}rsvrlrvGlrkrrrrr-NH2] (Dansyl-[Sar][dL][dNle][dR][dS][dV][dR][dL][dR][dV]G[dL][dR][dK][dR][dR][dR][dR][dR]-NH2) | – | 86
CCCC[C@@H](NC(=O)[C@@H](CC(C)C)NC(=O)CN(C)S(=O)(=O)c1cccc2c(N(C)C)cccc12)C(=O)N[C@H](CCCNC(=N)N)C(=O)N[C@H](CO)C(=O)N[C@@H](C(=O)N[C@H](CCCNC(=N)N)C(=O)N[C@H](CC(C)C)C(=O)N[C@H](CCCNC(=N)N)C(=O)N[C@@H](C(=O)NCC(=O)N[C@H](CC(C)C)C(=O)N[C@H](CCCNC(=N)N)C(=O)N[C@H](CCCNC(=N)N)C(=O)N[C@H](CCCNC(=N)N)C(=O)N[C@H](CCCNC(=N)N)C(=O)N[C@H](CCCNC(=N)N)C(=O)N[C@H](CCCNC(=N)N)C(=O)N(C)CC(=O)N(C)CC(=O)OC)C(C)C)C(C)C [Compound 20, DANSYL-Sarcosine-l{d-norLeucine}rsvrlrvGlrrrrrr-sarcosine-sarcosine-OMe] | – | 84
Ac-l{d-norLeucine}rsvrlr[d-norLeucine]GlrkrrrrrGΦ-NH2 (Ac-[dL][dNle][dR][dS][dV][dR][dL][dR][dNle]G[dL][dR][dK][dR][dR][dR][dR][dR]G[2Nal]-NH2; SMILES CCCC[C@@H](NC(=O)[C@@H](CCCNC(=N)N)NC(=O)[C@@H](CC(C)C)NC(=O)[C@@H](CCCNC(=N)N)NC(=O)[C@H](NC(=O)[C@@H](CO)NC(=O)[C@@H](CCCNC(=N)N)NC(=O)[C@@H](CCCC)NC(=O)[C@@H](CC(C)C)NC(C)=O)C(C)C)C(=O)NCC(=O)N[C@H](CC(C)C)C(=O)N[C@H](CCCNC(=N)N)C(=O)N[C@H](CCCCN)C(=O)N[C@H](CCCNC(=N)N)C(=O)N[C@H](CCCNC(=N)N)C(=O)N[C@H](CCCNC(=N)N)C(=O)N[C@H](CCCNC(=N)N)C(=O)N[C@H](CCCNC(=N)N)C(=O)NCC(=O)N[C@@H](Cc1ccc2ccccc2c1)C(N)=O) [Compound 16] | 43 | –
Ac-l{d-norLeucine}rsrrlvrGlrkrrrrrGΦ-NH2 [Compound 14] | 3500 | –
